Experimental data published in patent publication US20260250412A1, “COMBINATION OF ANTIBODY-DRUG CONJUGATE AND ANTI-PD-1 ANTIBODY, AND USE THEREOF” (GENEQUANTUM HEALTHCARE (SUZHOU) CO., LTD., priority 2023, published 2026).
“And” between values parts separate entries of the source, which are not always exact repeats. Identical values can stand only once.

Assays:
[1] = system: NCI-N87 mouse xenograft tumor; assay: In vivo efficacy, NCI-N87 mouse xenograft tumor; parameters: species or system BALB/c nude mice; settings: 3 mg/kg; for Tumor volume (mm^3) Day 0: baseline at grouping
[2] = system: human gastric cancer cells NCI-N87; assay: Cell proliferation, CellTiter Glo, 96 h, NCI-N87; assay type: cell-based; settings: NCI-N87, 96 h
Experimental: Two thousand human pharyngeal squamous cells carcinoma FaDu with high TROP2 expression were seeded into 96-well plates in 100 μL of culture medium per well, and incubated overnight in a cell incubator at 37° C. and 5% CO2. […] A positive control group was set: 100 μL Puromycin at a concentration of 10 μg/mL was added to each well. A negative control group was set: 100 μL of complete medium of FaDu cells was added to each well. After the administration was completed, the cells were moved to the incubator and incubated for 96 h. The 96-well plate was removed from the 37° C. cell incubator and equilibrated to room temperature for 30 minutes. After the medium was discarded, 100 μL of DMEM and 50 μL of CellTiter Glo reagent were added to each well, and the cells were shaken in the dark at 200 rpm for 15 minutes, and the luminescent signal reflecting cell viability was detected by a microplate reader. The inhibitory effects of the tested drugs on the proliferation of human pharyngeal squamous cell carcinoma FaDu are as shown in FIG. 2 and Table 7.
The human pharyngeal squamous cells carcinoma FaDu in Example 2.1.1 were replaced with human gastric cancer cells NCI-N87 (100 μL per well containing 5000 cells), and the inhibitory effect of ADC-7 was evaluated using the same process.

[3] = system: BxPC-3 mouse xenograft tumor; assay: In vivo efficacy, BxPC-3 mouse xenograft tumor; parameters: species or system BALB/c nude mice; settings: for T/C (%) / TGI (%) / Tumor volume (mm^3) Day 0 / tumor growth inhibition (in words): 3 mg/kg; for Tumor volume (mm^3) Day 0: baseline at grouping
Experimental: I. The logarithmic growth phase BxPC-3 were collected and the cell density was adjusted to 10×10^6 cells/mL with Matrigel buffer (PBS:Matrigel=1:1). 0.2 mL of the prepared BxPC-3 cell suspension was subcutaneously injected into the right scapula of SPF female BALB/c nude mice aged 6-8 weeks.
(§1) II. The tumor diameter was measured with a vernier caliper and the tumor volume was calculated according to the formula V=0.5a×b^2 (where a is the longest diameter of the tumor and b is the shortest diameter of the tumor). […] Animals in each group were administered by tail vein injection, and the control group was given an equal volume of vehicle. […] T/C and TGI values were calculated using tumor volume. The calculation formula is as follows: T/C %=TRTV/CRTV×100% (TRTV: RTV of the treatment group; CRTV: RTV of the vehicle control group). The relative tumor volume (RTV) was calculated based on the results of tumor measurement, and the calculation formula was RTV=Vt/V0, where V0 was the average tumor volume measured at the time of grouping (i.e., D0), Vt was the average tumor volume at one measurement, and TRTV and CRTV took the same day of data.
6 days after cell inoculation, when the average tumor volume was about 159 mm^3, animals were randomly divided into vehicle control group, ADC-5 3 mg/kg group, ADC-6 3 mg/kg group, and DS1062a 3 mg/kg group, with 6 animals in each group.

[4] = system: human pancreatic cancer cells BxPC-3; assay: Cell proliferation, CellTiter Glo, 96 h, BxPC-3; assay type: cell-based; settings: BxPC-3, 96 h
Experimental: (§2) A positive control group was set: 100 μL Puromycin at a concentration of 10 μg/mL was added to each well. […] After the administration was completed, the cells were moved to the incubator and incubated for 96 h. The 96-well plate was removed from the 37° C. cell incubator and equilibrated to room temperature for 30 minutes. After the medium was discarded, 100 μL of DMEM and 50 μL of CellTiter Glo reagent were added to each well, and the cells were shaken in the dark at 200 rpm for 15 minutes, and the luminescent signal reflecting cell viability was detected by a microplate reader.

[5] = system: MDA-MB-468 mouse xenograft tumor; assay: In vivo efficacy, MDA-MB-468 mouse xenograft tumor; parameters: species or system BALB/c Nude mice; settings: 4.5 mg/kg, intravenously
Experimental: The MDA-MB-468 tumor cells (ATCC, HTB-132) were maintained in vitro as a monolayer culture in L-15 medium supplemented with 10% fetal bovine serum and 1% Antibiotic-Antimycotic at 37° C. in an atmosphere of 0% CO2 in air. The cells growing in an exponential growth phase will be harvested and counted for tumor inoculation. For in vivo anti-tumor efficacy study, 10×10^6 MDA-MB-468 human breast cancer cells (Trop2 positive) in 0.2 mL of PBS with Matrigel (1:1) were inoculated subcutaneously in the right flank in BALB/c Nude mice. […] The tumor volume was measured twice weekly with a caliper. T/C and TGI values were calculated using tumor volume.

[6] = system: human breast cancer BR-05-0028 model; assay: In vivo efficacy, human breast cancer BR-05-0028 mouse xenograft tumor; parameters: species or system BALB/c nude mice
Experimental: as §1
The human breast cancer BR-05-0028 model (IHC 3±) was derived from tumor samples resected in clinical surgery. The tumor samples were inoculated into nude mice at the P0 generation, and the tumor tissue used in this example was the P5 generation. Tumor tissue with a volume of about 30 mm^3 was subcutaneously inoculated into the right back dorsum of SPF female BALB/c nude mice aged 6-8 weeks.

[7] = system: human pharyngeal squamous cells carcinoma FaDu; assay: Cell proliferation, CellTiter Glo, 96 h, FaDu; assay type: cell-based
Experimental: as §2

[8] = system: Trop2 positive cancer cells NCI-N87; assay: Cytotoxicity assay, CellTiter-Glo, 168 h, NCI-N87; assay type: cell-based, human
Experimental: In brief, 3000 to 5000 cells were plated in 96-well plates, and cells were able to attach overnight. Cells were treated with indicated drugs with various concentrations for 168 h. Cell viabilities were examined by CellTiter-Glo® Luminescent Cell Viability Assay, and percentage of cell viability was calculated.

[9] = Table 15, single dose, 5 mg/kg, Day 21

DS1062a
Tumor volume (mm^3) Day 32 ([1]; Table 14, single dose): 658 mm^3 and 658 ± 43 mm^3 | T/C (%) ([1]; Table 14, single dose, Day 32): 49.98% | TGI (%) ([1]; Table 14, single dose, Day 32): 60.23% | Tumor volume (mm^3) Day 0 ([1]; Table 14, single dose): 228 ± 20 mm^3 | Tumor volume (mm^3) Day 28 ([1]; Table 17): 255 mm^3 and 255 ± 35 mm^3 | T/C (%) ([1]; Table 17, Day 28): 40.30% | TGI (%) ([1]; Table 17, Day 28): 84.96% | Tumor volume (mm^3) Day 0 ([1]; Table 17): 188 ± 11 mm^3 | Tumor volume (mm^3) Day 42 ([1]; Table 20): 437 mm^3 and 437 ± 89 mm^3 | T/C (%) ([1]; Table 20, Day 42): 35.67% | TGI (%) ([1]; Table 20, Day 42): 76.58% | Tumor volume (mm^3) Day 0 ([1]; Table 20): 196 ± 14 mm^3 | tumor growth inhibition (in words) ([1]; effect example 3.1.2, after 32 days): able to significantly inhibit tumor growth | tumor growth inhibition (in words) ([1]; effect example 3.2.2, after 28 days): can significantly inhibit NCI-N87 tumor growth | tumor growth inhibition (in words) ([1]; effect example 3.3.2, after 42 days): could significantly inhibit tumor growth | inhibition of proliferation (in words) [2]: could inhibit the proliferation of NCI-N87 cells | IC50 ([2]; Table 10): 1.26 nM | Tumor volume (mm^3) Day 35 ([3]; Table 13, 3 mg/kg, tail vein injection): 847 mm^3 and 847 ± 104 mm^3 | T/C (%) ([3]; Table 13, Day 35): 64.05% | TGI (%) ([3]; Table 13, Day 35): 40.54% | Tumor volume (mm^3) Day 0 ([3]; Table 13, tail vein injection): 151 ± 12 mm^3 | Tumor volume (mm^3) Day 28 ([3]; Table 16, 3 mg/kg): 540 mm^3 and 540 ± 74 mm^3 | T/C (%) ([3]; Table 16, Day 28): 58.49% | TGI (%) ([3]; Table 16, Day 28): 48.52% | Tumor volume (mm^3) Day 0 ([3]; Table 16): 151 ± 12 mm^3 | Tumor volume (mm^3) Day 42 ([3]; Table 19, 3 mg/kg): 302 mm^3 and 302 ± 73 mm^3 | T/C (%) ([3]; Table 19, Day 42): 27.69% | TGI (%) ([3]; Table 19, Day 42): 84.60% | Tumor volume (mm^3) Day 0 ([3]; Table 19): 159 ± 11 mm^3 | tumor growth inhibition (in words) ([3]; effect example 3.1.1, compared with the control group): could significantly inhibit tumor growth | tumor growth inhibition (in words) ([3]; effect example 3.3.1, after 42 days): could significantly inhibit tumor growth | inhibition of proliferation (in words) [4]: could inhibit the proliferation of BxPC-3 cells | IC50 ([4]; Table 8): 0.584 nM | Tumor volume (mm^3) on day 35 [5]: 9 ± 9 mm^3 | T/C (%) ([5]; day 35): 1.35% | TGI (%) ([5]; day 35): 136.06% | Tumor volume (mm^3) Day 21 ([6]; Table 15, single dose, 5 mg/kg): 8 ± 1 mm^3 | T/C (%) [6, 9]: 0.48% | TGI (%) [6, 9]: 111.60% | Tumor volume (mm^3) Day 0 ([6]; Table 15, single dose, 5 mg/kg, baseline at grouping): 171 ± 23 mm^3 | tumor growth inhibition (in words) ([6]; effect example 3.1.3, 5 mg/kg (ADC-1 also 10 mg/kg), after 21 days): able to significantly inhibit tumor growth | inhibition of proliferation (in words) [7]: could inhibit the proliferation of FaDu cells | IC50 ([7]; Table 7): 0.551 nM | IC50 [8]: 2.1 nM
